Reference: US4751235A, “Anti-atherosclerotic indolizine derivatives” (Sandoz Pharm. Corp., priority 1986, dated 1988)
Structures can show the parent of a compound that is named as a salt.

Columns and labels:
[1] = system: 3 β-hydroxysterol synthesis; experiment: Test B. In Vivo Cholesterol Biosynthesis Inhibition Test; details: Rattus norvegicus, rats, oral administration, read-out: ED50 (dose producing 50% inhibition of 3 β-hydroxysterol synthesis)
Experimental: Test B. In Vivo Cholesterol Biosynthesis Inhibition Test: This test is also known and is carried out as described on pages 60-61 of said application Ser. No. 06/741,903 and on page 33 of World (PCT) Published Patent Application No. 84/02131, both of which are hereby incorporated by reference as if set forth herein in their entirety.

[2] = target: T1, HMG-CoA reductase (Rattus norvegicus, UniProt P51639); experiment: Test A. In Vitro Microsomal Assay of HMG-CoA Reductase Inhibition; type: biochemical; details: read-out: IC50 (concentration producing 50% inhibition of HMG-CoA reductase activity)
T1 construct: from tissue; host or cells: microsomes (printed); rat liver by own knowledge of the cited method
T1 sequence (P51639 1-887): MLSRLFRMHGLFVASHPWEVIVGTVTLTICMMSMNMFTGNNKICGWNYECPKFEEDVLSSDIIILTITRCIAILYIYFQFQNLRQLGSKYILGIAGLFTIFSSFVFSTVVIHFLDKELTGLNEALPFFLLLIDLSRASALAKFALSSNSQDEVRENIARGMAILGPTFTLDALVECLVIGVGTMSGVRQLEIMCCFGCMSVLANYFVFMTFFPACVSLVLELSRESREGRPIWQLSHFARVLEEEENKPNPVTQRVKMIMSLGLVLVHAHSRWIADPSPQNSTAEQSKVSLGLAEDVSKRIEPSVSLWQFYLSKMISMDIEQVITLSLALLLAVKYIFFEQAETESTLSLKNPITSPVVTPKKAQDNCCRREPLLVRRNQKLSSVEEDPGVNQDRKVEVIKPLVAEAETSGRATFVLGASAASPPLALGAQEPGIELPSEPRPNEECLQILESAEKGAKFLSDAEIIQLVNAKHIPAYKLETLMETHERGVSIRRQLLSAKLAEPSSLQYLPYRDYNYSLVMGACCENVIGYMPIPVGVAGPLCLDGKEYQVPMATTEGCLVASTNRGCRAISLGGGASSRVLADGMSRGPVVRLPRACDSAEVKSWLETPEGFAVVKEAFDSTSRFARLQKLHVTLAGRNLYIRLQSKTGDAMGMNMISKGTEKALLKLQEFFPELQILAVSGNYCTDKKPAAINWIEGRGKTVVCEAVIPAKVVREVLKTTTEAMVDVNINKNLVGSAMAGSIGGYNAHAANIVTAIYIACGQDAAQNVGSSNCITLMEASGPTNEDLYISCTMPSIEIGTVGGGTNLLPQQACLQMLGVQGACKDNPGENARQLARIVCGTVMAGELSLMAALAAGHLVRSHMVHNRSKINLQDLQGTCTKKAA
Experimental: Test A. In Vitro Microsomal Assay of HMG-CoA Reductase Inhibition:
This test is known and is carried out as described on pages 59-60 of application Ser. No. 06/741,903 (filed June 6, 1985) and on page 30 of World (PCT) Published Patent Application No. 84/02131 both of which are hereby incorporated by reference as if set forth herein in their entirety. The concentration of the test substance (compound of Formula I) in the assay system is 0.0005-2,000 μmolar. The obtained IC50 is the concentration of the test substance in the assay system observed or calculated to produce a 50% inhibition of HMG-CoA reductase activity.

IC50 [2] | SMILES | ED50 [1]
– | CC[C@H](C)C(=O)O[C@H]1CCC=C2C=C[C@H](C)[C@H](CC[C@@H]3C[C@@H](O)CC(=O)O3)[C@H]21 [Compactin] | 3.5 mg/kg
– | CCOC(=O)C[C@H](O)C[C@H](O)/C=C/c1c(C(C)C)c2ccccn2c1-c1ccc(F)cc1 (relative stereo) [Example 1, 7-[3-(4-fluorophenyl)-1-(1-methylethyl)-2-indolizinyl]-3,5,-dihydroxy-6-heptenoic acid, ethyl ester (trans)] | 0.05 mg/kg
– | CC[C@H](C)C(=O)O[C@H]1C[C@@H](C)C=C2C=C[C@H](C)[C@H](CC[C@@H]3C[C@@H](O)CC(=O)O3)[C@H]21 [Mevinolin] | 0.41 mg/kg
11 nM | CC(C)c1c(/C=C/[C@@H](O)C[C@@H](O)CC(=O)O)c(-c2ccc(F)cc2)n2ccccc12 (relative stereo) [Example 2, 7-[3-(4-fluorophenyl)-1-(1-methylethyl)-2-indolizinyl]-3,5,-dihydroxy-6-heptenoic acid, sodium salt (trans)] | –
